Here are results for one sequence from patent US5254459A, “Nucleotide and amino acid sequences of protein MTP40 of M. tuberculosis and synthetic peptides derived therefrom” (priority 1992, dated 1993).

The test system of this test is sera from tuberculosis patients. As to the kind of experiment: ELISA recognition of synthetic MTP40 peptides by human sera. In kind it is binding. As to conditions: sera from active tuberculosis patients having B(+) sputum; peptide coated at 3 micrograms per well.

No end group written: not given here.

As for “WLKLGLVEFGGVAKLNAEVMS [S698, synthetic peptide derived from M. tuberculosis MTP40 protein]”, the “percentage of sera recognizing the peptide (ELISA)” value is 20.8%.
